Data: patent EP2216022A1, “USE OF C[…] THE TREATMENT OF BASAL CELL CARCINOMA AND OTHER TUMORS” (Tas, Sinan, priority 2001, dated 2002)

Assays:
Assay type in all cases: in vivo, patient
p53 = experiment: Immunohistochemical DO-7 labelling (p53 expression) of treated BCC's; conditions: topical cream 18 mM cyclopamine; for % Of Cells Labelled With DO-7: four times per day, excised on fifth and sixth days, means ± standard deviations, p < 0.001 vs placebo
From the text: (§1) These regions are seen to contain residual BCC`s displaying large cysts in the tumor center and smaller cystic structures of various sizes located among the residual BCC cells towards the periphery. • Fig 2D and Fig 2E show 1000X magnified appearances from the interior and palisading peripheral regions of these residual BCC's and show the presence of massive apoptotic activity among the residual BCC cells regardless of the tumor region.
The p53 is a master regulator of the cellular response to DNA-damage. Amount of this protein is known to increase in the cell nucleus following exposure of cells to genotoxic agents. When the DNA-damage is increased beyond a threshold, p53 serves for the apoptotic death of cells. Radiation therapy of cancer and the genotoxic cancer chemotherapeutics that are currently common, act largely by this mechanism, i.e. by causation of apoptosis secondary to the damaging of DNA. The monoclonal antibody DO-7 can bind both normal and missense mutant (i.e., nonfunctional) forms of p53 and is known to be capable of detecting the increase of p53 in the cells following exposure to DNA-damaging agents.
Since expression of p53 is known to decrease in epidermal cells upon differentiation, the decreased DO-7 labelling of the cyclopamine-treated BCC's is likely to be secondary to the cyclopamine-induced differentiation of the BCC cells.
(§2) Ber-Ep4 is a known differentiation marker that stains the BCC cells as well as the undifferentiated cells of the normal epidermis basal layer and of hair follicles but not the differentiated upper layer cells of normal epidermis. […] 3D and 3E : Decreased expression of p53 as detected by the monoclonal antibody DO-7 in cyclopamine-treated BCC's (3D) in comparison to the placebo-treated BCC's (3E). Expression of p53 is known to decrease upon differentiation of the epidermal basal cells and upon differentiation of cultured keratinocytes. It is also well known that the amount of p53, detectable by DO-7, increases in cells when they are exposed to DNA-damaging agents. […]

[1] = test system: normal epidermis and hair follicles; conditions: Normal skin exposed to the same schedule and doses of cyclopamine as the BCC's; undifferentiated basal layer cells preserved
From the text: as §1
4B and 4C Higher power views from different areas of cyclopamine-treated epidermis showing Ber-Ep4 labelling of the basal cells. […] Original magnification is 400X for 4A and 1000X for 4B, 4C, 4D, immunohistochemical detection procedure is the same as in Fig 3A, 3B; labelling is indicated by brown coloring.

BCC cells [2] = experiment: Apoptosis by morphological criteria on hematoxylene-eosine stained sections of excised treated BCC's; conditions: topical cream 18 mM cyclopamine, 10 ± 2 µl four times per day, excised on fifth and sixth days, means ± standard deviations, at least 16 high-power (1000 X) fields, p < 0.001 vs placebo
From the text: as §1
Cells undergoing apoptosis are known to be removed by macrophages and by nearby cells in normal tissues and the quantitation of apoptotic activity by morphological criteria on hematoxylene-eosine stained sections is known to provide an underestimate.
Fig 2A, 2B, 2C, 2D, 2E, 2F : Microscopic appearences of the cyclopamine- and placebo-treated BCC's, showing the cyclopamine-induced massive apoptotic death and removal of the tumor cells and the disappearence of tumor nodules to leave behind cystic spaces with no tumor cells. Skin areas corresponding to the pre-treatment positions of the BCC's were excised surgically on the fifth and sixth days of cyclopamine exposure with a margin of normal tissue and subjected to conventional fixation, sectioning and hematoxylene-eosine staining for microscopic analyses. 2A : Large cyst in the dermis corresponding to the position of a disappeared tumor nodule showing no residual tumor cells. […]

BCC cells [3] = experiment: Immunohistochemical Ber-Ep4 labelling (differentiation marker) of treated BCC's; conditions: topical cream 18 mM cyclopamine, four times per day, excised on fifth and sixth days, means ± standard deviations, p < 0.001 vs placebo
From the text: as §1
The loss of translucency in the cyclopamine-treated BCC's raises the intriguing possibility of differentiation of BCC's under the influence of cyclopamine. This possibility, which can be tested by immunohistochemical analyses of the BCC's, is found to be the case in this invention. In normal epidermis, differentiation of basal tayer cells to the upper layer cells is accompanied by a loss of labelling with the monoclonal antibody Ber-Ep4. Ber-Ep4 labels also the BCC cells and is a known marker for these neoplasms.
(§3) Ber-Ep4 is a known differentiation marker that stains the BCC cells as well as the undifferentiated cells of the normal epidermis basal layer and of hair follicles but not the differentiated upper layer cells of normal epidermis. […] 3D and 3E : Decreased expression of p53 as detected by the monoclonal antibody DO-7 in cyclopamine-treated BCC's (3D) in comparison to the placebo-treated BCC's (3E). Expression of p53 is known to decrease upon differentiation of the epidermal basal cells and upon differentiation of cultured keratinocytes. It is also well known that the amount of p53, detectable by DO-7, increases in cells when they are exposed to DNA-damaging agents. […] Original magnifications are 400X for 3A, 3B, 3D, 3E, 1000X for 3C and 100X for 3F, 3G. All immunohistochemical labellings are with peroxidase-conjugated streptavidin binding to biotinylated secondary antibody; labelling is Indicated by the brown-colored staging. Sections shown in 3F and 3G are stained with Periodic Acid-Schiff and Alcian blue.

BCC cells [4] = experiment: Ulex Europaeus lectin type 1 labelling (differentiation marker) of treated BCC's; conditions: Residual cells of cyclopamine-treated BCC's; lectin normally does not label BCC's; topical cream 18 mM cyclopamine
From the text: as §1
as §3, with “Sections shown in 3F and 3G are stained with Periodic Acid-Schiff and Alcian blue.” left out

BCC's = experiment: Retraction of treated BCC's from stroma (arrest of proliferation), Periodic Acid-Schiff and Alcian blue sections; conditions: Cyclopamine-treated but not placebo-treated BCC's; associated with arrest of proliferation; topical cream 18 mM cyclopamine
From the text: as §1
Arrest of the proliferation of BCC's is known to be associated with their retraction from stroma. Although retraction from stroma can also be caused artefactually by improper fixation and processing of the tissues, adherence to published technical details ensures avoidance of such artefacts.
as §2

[5] = test system: basal cell carcinomas (BCC's); experiment: Topical cyclopamine cream on basal cell carcinomas: clinical regression; conditions: Two BCC's (nasolabial fold, forehead); topical cream 18 mM cyclopamine, 10 ± 2 µl four times per day; visual disappearance of several tumor areas within less than a week, loss of translucency
From the text: as §1
1C : BCC, located on forehead, prior to tretment.

[6] = Non-palisading (interior) cells of the BCC's
[7] = Peripheral palisading cells of the BCC's

For `CC1=C2C[C@H]3[C@@H](CC=C4C[C@@H](O)CC[C@@]43C)[C@@H]2CC[C@]12O[C@@H]1C[C@H](C)CN[C@H]1[C@H]2C` [Cyclopamine], the “DO-7 labelling intensity and the frequency of labelled cells” value (p53; Cyclopamine-treated BCC's in comparison to placebo-treated BCC's) was “markedly decreased”, the “% Of Cells Labelled With DO-7” value (p53; [6]) was 5 ± 3% and the “% Of Cells Labelled With DO-7” value (p53; [7]) was 16 ± 11%. For the same compound, the “pattern of labelling with Ber-Ep4 of cyclopamine-treated normal epidermis and hair follicle” value [1] was “normal pattern of labelling”, the “% Of Cells Showing ≥ 2 Morphological Signs Of Apoptosis On H&E Stained Tissue Sections” value (BCC cells [2]; [6]) was 18 ± 11% and the “% Of Cells Showing ≥ 2 Morphological Signs Of Apoptosis On H&E Stained Tissue Sections” value (BCC cells [2]; [7]) was 20 ± 8%. For the same compound, the “% Of Cells Labelled With Ber-Ep4” value (BCC cells [3]; [6]) was 0 ± 0%, the “% Of Cells Labelled With Ber-Ep4” value (BCC cells [3]; Non-palisading (interior) cells of the BCC's, listed as cyclopamine) was “none” and the “% Of Cells Labelled With Ber-Ep4” value (BCC cells [3]; [7]) was 0 ± 0%. For the same compound, the “% Of Cells Labelled With Ber-Ep4” value (BCC cells [3]; Peripheral palisading cells of the BCC's, listed as cyclopamine) was “none”, the “labelling of the residual cells with Ulex Europaeus lectin type 1” value (BCC cells [4]) was “heterogenous labelling” and the “retraction of BCC's from stroma” value (BCC's) was “consistently retracted from stroma”. The “clinical regressions of the BCC's” value [5] was “rapid clinical regressions”.
